Reference: paper PMC4581874 (PLoS ONE, 2015)

Key:
[1] = molecular target: T1, Abl (h) (Homo sapiens, UniProt P00519); experiment: Kinase profile, Abl; assay type: biochemical; conditions: mean ± S.D.
T1 construct: purchased Millipore (now Eurofins) KinaseProfiler / IC50 Profiler
Procedure: (§1) All kinase assays were carried out using KinaseProfiler^TM and IC50 Profiler^TM (Millipore UK Ltd., Dundee, UK. Now Eurofins Scientific, Dundee, UK). All IC50 data were presented as the mean values. The Curves obtained to determine IC50 values were shown in Supporting Information (S1 Fig).

[2] = molecular target: T2, PKCζ (h) (Homo sapiens, UniProt Q05513); experiment: Kinase profile, PKCζ; assay type: biochemical; conditions: mean ± S.D.
T2 construct: purchased Millipore (now Eurofins) KinaseProfiler / IC50 Profiler
Procedure: as §1

[3] = molecular target: EGFR (Homo sapiens, UniProt P00533); experiment: In vitro kinase assay, EGFR; assay type: biochemical
Procedure: All kinase assays were carried out using KinaseProfiler^TM and IC50 Profiler^TM (Millipore UK Ltd., Dundee, UK. Now Eurofins Scientific, Dundee, UK). All IC50 data were presented as the mean values.

[4] = test system: HUVECs; experiment: HUVEC viability assay (cytotoxicity); assay type: cell-based, human; conditions: 24 hours
Procedure: HCC827 cells were purchased from the American Type Culture Collection (ATCC, Manassas, VA, USA). Cells were grown in RPMI 1640 (Welgene Inc., Daegu, Republic of Korea) supplemented with 10% fetal bovine serum (FBS) (Welgene Inc.) and 1% penicillin-streptomycin (Gibco®, Life Technologies, Carlsbad, CA, USA) in a humidified 5% CO2 atmosphere at 37°C. Human umbilical vein endothelial cells (HUVECs, ScienCell Research Laboratories, Carlsbad, CA, USA) were cultured in endothelial growth medium-2 (EGM-2; Lonza, Walkersville, MD, USA) from passages 3 to 6.
For the HUVEC viability assay, HUVECs were treated with phosphate-buffered saline (PBS) or the indicated concentrations of VEGF inhibitors in EGM-2 medium for 24 hours. After the cells were washed with PBS, they were counted using an inverted light microscope (Nikon Eclipse Ti-U; Nikon Corp., Tokyo, Japan) in 5 random fields from each well.

[5] = molecular target: T3, CDK3/cyclin E (h) (Homo sapiens, UniProt Q00526); experiment: Kinase profile, CDK3/cyclin E; assay type: biochemical; conditions: mean ± S.D.
T3 construct: purchased Millipore (now Eurofins) KinaseProfiler / IC50 Profiler
Procedure: as §1

[6] = molecular target: T4, CaMKIIδ (h) (Homo sapiens, UniProt Q13557); experiment: Kinase profile, CaMKIIδ; assay type: biochemical; conditions: mean ± S.D.
T4 construct: purchased Millipore (now Eurofins) KinaseProfiler / IC50 Profiler
Procedure: as §1

[7] = molecular target: T5, CDK7/cyclin H/MAT1 (h) (Homo sapiens, UniProt P50613); experiment: Kinase profile, CDK7/cyclin H/MAT1; assay type: biochemical; conditions: mean ± S.D.
T5 construct: purchased Millipore (now Eurofins) KinaseProfiler / IC50 Profiler
Procedure: as §1

[8] = test system: phosphorylated EGFR; experiment: Western blot of EGFR phosphorylation in HCC827 cells; assay type: cell-based; conditions: 3 h
Procedure: Fig 3 MKP101 inhibits proliferation of epidermal growth factor receptor (EGFR)-tyrosine kinase inhibitor (TKI)-sensitive non-small cell lung cancer (NSCLC) cells. (A) Inhibition of HCC827 cell proliferation. Cells were incubated for 72 h with a range of concentrations of MKP101, and cell viability was measured using the WST-1 assay. […] (B) Inhibition of EGFR phosphorylation in HCC827 cells. Western blot analysis using antibodies to phosphorylated and total EGFR from a representative experiment is shown. Cells were incubated for 3 h at the indicated concentration. (C) Graph showing the relative intensities of the total and phosphorylated EGFR as determined by band densitometry. IC50, half-maximal inhibitory concentration.

[9] = molecular target: T6, AMPKα1 (h) (Homo sapiens, UniProt Q13131); experiment: Kinase profile, AMPKα1; assay type: biochemical; conditions: mean ± S.D.
T6 construct: purchased Millipore (now Eurofins) KinaseProfiler / IC50 Profiler
Procedure: as §1

[10] = molecular target: T7, PKCβII (h) (Homo sapiens, UniProt P05771); experiment: Kinase profile, PKCβII; assay type: biochemical; conditions: mean ± S.D.
T7 construct: purchased Millipore (now Eurofins) KinaseProfiler / IC50 Profiler
Procedure: as §1

[11] = molecular target: T8, VEGFR-3 (Homo sapiens, UniProt P35916); experiment: In vitro kinase assay, VEGFR-3; assay type: biochemical
T8 construct: purchased Millipore UK Ltd., Dundee, UK (now Eurofins Scientific); KinaseProfiler / IC50 Profiler service
Procedure: as §1

[12] = molecular target: T9, FGFR3 (Homo sapiens, UniProt P22607); experiment: In vitro kinase assay, FGFR3; assay type: biochemical
T9 construct: purchased Millipore UK Ltd., Dundee, UK (now Eurofins Scientific); KinaseProfiler / IC50 Profiler service
Procedure: as §1

[13] = molecular target: T10, cKit (Homo sapiens, UniProt P10721); experiment: In vitro kinase assay, cKit; assay type: biochemical
T10 construct: purchased Millipore UK Ltd., Dundee, UK (now Eurofins Scientific); KinaseProfiler / IC50 Profiler service
Procedure: as §1

[14] = molecular target: T11, CDK2/cyclin E (h) (Homo sapiens, UniProt P24941); experiment: Kinase profile, CDK2/cyclin E; assay type: biochemical; conditions: mean ± S.D.
T11 construct: purchased Millipore (now Eurofins) KinaseProfiler / IC50 Profiler
Procedure: as §1

[15] = molecular target: T12, PKA (h) (Homo sapiens, UniProt P17612); experiment: Kinase profile, PKA; assay type: biochemical; conditions: mean ± S.D.
T12 construct: purchased Millipore (now Eurofins) KinaseProfiler / IC50 Profiler
Procedure: as §1

[16] = molecular target: T13, VEGFR-2 (Homo sapiens, UniProt P35968); experiment: In vitro kinase assay, VEGFR-2; assay type: biochemical
T13 construct: purchased Millipore UK Ltd., Dundee, UK (now Eurofins Scientific); KinaseProfiler / IC50 Profiler service
Procedure: as §1

[17] = molecular target: T14, FLT3 (h) (Homo sapiens, UniProt P36888); experiment: Kinase profile, FLT3; assay type: biochemical; conditions: mean ± S.D.
T14 construct: purchased Millipore (now Eurofins) KinaseProfiler / IC50 Profiler
Procedure: as §1

[18] = molecular target: T15, CDK2/cyclin A (h) (Homo sapiens, UniProt P24941); experiment: Kinase profile, CDK2/cyclin A; assay type: biochemical; conditions: mean ± S.D.
T15 construct: purchased Millipore (now Eurofins) KinaseProfiler / IC50 Profiler
Procedure: as §1

[19] = test system: HUVECs; experiment: VEGF-induced scratch wound migration assay; assay type: cell-based, human; conditions: VEGF 50 ng/mL, compound 0.5 μg/mL, 8 hours
Procedure: For the cell proliferation assays, cells were incubated overnight in endothelial basal media (EBM; Lonza, Walkersville, MD, USA) containing 0.5% FBS or supplemented with VEGF-A and/or VEGF inhibitors. The cells were washed with PBS and counted in 4 random microscope fields. The tube formation assay was performed by seeding cells on Matrigel-coated plates (BD Bioscience, Bedford, MA, USA) and incubating in EBM containing 0.5% FBS or supplemented with VEGF-A and/or VEGF inhibitors. After overnight incubation, tubule networks were quantified by measuring the tubule length in 4 random microscope fields. For the analysis of scratch wound migration, confluent cell monolayers grown on 6-well plates were scratched using a micropipette tip. After the plates were washed with PBS to remove dislodged cells and media, they were incubated with EBM containing 0.5% FBS or supplemented with VEGF and/or VEGF inhibitors for 8 hours. Cell migration was observed by optical microscopy and quantified by measuring the number of cells that had migrated from the wound edges.

[20] = molecular target: T16, PKCβI (h) (Homo sapiens, UniProt P05771); experiment: Kinase profile, PKCβI; assay type: biochemical; conditions: mean ± S.D.
T16 construct: purchased Millipore (now Eurofins) KinaseProfiler / IC50 Profiler
Procedure: as §1

T10 sequence (P10721 26-976): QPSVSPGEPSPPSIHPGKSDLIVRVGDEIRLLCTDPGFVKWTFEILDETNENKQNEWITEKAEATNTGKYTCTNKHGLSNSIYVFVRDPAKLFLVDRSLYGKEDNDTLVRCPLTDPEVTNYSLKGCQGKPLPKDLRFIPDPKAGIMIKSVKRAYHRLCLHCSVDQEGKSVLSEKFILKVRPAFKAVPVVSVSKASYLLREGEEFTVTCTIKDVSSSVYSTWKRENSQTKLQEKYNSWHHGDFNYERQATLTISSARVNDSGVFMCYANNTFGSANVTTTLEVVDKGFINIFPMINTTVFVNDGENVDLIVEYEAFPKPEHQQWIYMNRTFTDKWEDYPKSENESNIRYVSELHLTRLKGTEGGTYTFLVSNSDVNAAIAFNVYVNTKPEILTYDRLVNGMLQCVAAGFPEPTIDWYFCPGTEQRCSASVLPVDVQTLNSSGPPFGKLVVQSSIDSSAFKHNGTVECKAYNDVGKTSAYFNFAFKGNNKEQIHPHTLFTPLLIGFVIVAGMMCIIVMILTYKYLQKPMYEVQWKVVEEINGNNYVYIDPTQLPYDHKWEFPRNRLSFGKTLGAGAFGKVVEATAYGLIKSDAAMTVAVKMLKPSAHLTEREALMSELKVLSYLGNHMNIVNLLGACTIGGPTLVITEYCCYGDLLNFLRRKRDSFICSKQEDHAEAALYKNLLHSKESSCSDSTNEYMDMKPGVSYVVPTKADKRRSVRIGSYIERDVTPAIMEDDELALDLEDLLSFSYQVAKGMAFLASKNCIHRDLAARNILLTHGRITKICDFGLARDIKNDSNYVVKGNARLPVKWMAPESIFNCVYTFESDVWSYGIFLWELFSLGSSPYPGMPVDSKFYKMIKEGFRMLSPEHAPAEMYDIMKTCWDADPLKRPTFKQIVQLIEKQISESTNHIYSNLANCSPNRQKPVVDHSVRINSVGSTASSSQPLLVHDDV
T13 sequence (P35968 20-1356): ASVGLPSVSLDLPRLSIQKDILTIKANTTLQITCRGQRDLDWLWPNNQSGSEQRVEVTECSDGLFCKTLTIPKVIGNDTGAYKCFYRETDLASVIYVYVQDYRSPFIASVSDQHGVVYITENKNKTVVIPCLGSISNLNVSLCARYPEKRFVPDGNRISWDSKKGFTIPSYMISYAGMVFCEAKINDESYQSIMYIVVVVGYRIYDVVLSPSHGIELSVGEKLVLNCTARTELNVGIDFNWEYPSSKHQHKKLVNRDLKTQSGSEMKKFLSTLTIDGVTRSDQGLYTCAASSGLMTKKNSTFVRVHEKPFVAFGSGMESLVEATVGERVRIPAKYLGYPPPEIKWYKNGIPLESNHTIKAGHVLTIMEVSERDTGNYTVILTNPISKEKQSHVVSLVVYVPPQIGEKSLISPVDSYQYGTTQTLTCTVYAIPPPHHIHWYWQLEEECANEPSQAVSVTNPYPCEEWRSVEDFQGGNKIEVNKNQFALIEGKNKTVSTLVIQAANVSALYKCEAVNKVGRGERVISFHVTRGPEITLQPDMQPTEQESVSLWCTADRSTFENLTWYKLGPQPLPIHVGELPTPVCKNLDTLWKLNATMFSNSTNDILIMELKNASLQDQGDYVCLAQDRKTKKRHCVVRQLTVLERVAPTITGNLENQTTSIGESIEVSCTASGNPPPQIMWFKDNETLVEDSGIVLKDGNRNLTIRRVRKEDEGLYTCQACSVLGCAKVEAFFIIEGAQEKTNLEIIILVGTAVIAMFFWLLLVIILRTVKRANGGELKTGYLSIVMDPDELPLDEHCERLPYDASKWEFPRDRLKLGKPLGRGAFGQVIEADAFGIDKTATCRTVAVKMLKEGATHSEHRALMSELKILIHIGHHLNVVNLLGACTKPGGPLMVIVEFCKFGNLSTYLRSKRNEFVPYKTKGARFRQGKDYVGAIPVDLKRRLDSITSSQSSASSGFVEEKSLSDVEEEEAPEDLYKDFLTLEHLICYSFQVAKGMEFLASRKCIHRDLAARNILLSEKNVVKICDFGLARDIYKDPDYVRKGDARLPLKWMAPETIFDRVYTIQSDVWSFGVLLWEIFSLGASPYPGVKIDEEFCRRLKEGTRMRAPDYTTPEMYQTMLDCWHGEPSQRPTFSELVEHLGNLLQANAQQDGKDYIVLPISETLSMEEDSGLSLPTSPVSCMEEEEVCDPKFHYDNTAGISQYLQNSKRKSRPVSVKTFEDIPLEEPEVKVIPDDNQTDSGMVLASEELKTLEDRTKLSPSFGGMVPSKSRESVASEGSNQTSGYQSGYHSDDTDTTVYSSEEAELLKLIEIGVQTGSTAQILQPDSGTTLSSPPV
T9 sequence (P22607 23-806): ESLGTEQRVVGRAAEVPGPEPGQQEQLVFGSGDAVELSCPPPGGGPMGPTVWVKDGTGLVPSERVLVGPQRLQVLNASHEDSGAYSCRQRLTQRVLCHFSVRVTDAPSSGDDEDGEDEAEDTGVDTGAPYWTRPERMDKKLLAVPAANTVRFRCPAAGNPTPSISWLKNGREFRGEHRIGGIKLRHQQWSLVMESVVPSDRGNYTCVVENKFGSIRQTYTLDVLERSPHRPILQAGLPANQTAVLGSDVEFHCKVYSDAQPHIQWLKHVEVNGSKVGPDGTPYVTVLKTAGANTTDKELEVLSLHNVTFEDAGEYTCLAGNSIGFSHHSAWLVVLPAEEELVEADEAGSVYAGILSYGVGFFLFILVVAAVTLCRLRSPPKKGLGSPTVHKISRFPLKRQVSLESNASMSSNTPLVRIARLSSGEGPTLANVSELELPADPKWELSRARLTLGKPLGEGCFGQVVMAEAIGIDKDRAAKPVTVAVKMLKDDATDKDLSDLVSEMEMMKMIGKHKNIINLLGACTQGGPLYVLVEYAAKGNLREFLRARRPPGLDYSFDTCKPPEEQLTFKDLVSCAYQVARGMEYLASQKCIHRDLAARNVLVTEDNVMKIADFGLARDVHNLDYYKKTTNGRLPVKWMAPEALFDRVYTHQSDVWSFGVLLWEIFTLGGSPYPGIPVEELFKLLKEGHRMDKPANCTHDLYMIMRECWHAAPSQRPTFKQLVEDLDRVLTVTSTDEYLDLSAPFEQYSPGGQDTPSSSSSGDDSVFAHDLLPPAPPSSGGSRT
Chain of EGFR (P00533 25-1210): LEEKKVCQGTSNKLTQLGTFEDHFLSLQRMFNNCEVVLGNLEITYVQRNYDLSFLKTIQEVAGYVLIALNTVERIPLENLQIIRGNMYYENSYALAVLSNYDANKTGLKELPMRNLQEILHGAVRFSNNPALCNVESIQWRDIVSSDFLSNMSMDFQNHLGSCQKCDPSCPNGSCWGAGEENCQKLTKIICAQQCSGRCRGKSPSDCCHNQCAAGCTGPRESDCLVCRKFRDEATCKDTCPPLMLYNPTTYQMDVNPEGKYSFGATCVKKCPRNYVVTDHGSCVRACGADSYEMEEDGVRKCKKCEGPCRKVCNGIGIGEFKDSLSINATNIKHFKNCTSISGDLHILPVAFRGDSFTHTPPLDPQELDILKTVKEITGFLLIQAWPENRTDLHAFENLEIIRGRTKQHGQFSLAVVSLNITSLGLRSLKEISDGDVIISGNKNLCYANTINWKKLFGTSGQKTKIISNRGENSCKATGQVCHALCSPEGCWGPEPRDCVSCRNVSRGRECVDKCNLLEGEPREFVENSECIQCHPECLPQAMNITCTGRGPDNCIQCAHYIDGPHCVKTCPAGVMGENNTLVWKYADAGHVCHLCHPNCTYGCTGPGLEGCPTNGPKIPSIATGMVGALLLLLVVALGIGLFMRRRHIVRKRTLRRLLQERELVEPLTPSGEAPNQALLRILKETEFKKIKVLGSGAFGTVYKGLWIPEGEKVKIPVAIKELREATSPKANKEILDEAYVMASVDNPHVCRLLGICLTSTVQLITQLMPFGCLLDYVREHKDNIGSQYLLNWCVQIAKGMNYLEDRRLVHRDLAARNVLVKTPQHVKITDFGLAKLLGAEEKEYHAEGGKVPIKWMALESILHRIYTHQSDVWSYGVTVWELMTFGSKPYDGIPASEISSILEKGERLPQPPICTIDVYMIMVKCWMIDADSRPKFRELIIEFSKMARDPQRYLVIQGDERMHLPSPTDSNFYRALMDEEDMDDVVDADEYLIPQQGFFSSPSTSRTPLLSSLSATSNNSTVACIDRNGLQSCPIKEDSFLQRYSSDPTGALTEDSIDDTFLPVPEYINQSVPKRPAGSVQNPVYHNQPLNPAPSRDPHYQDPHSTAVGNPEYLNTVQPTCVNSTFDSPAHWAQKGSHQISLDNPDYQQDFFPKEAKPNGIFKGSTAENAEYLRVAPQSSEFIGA
T7 sequence (P05771 1-673 isoform P05771-2): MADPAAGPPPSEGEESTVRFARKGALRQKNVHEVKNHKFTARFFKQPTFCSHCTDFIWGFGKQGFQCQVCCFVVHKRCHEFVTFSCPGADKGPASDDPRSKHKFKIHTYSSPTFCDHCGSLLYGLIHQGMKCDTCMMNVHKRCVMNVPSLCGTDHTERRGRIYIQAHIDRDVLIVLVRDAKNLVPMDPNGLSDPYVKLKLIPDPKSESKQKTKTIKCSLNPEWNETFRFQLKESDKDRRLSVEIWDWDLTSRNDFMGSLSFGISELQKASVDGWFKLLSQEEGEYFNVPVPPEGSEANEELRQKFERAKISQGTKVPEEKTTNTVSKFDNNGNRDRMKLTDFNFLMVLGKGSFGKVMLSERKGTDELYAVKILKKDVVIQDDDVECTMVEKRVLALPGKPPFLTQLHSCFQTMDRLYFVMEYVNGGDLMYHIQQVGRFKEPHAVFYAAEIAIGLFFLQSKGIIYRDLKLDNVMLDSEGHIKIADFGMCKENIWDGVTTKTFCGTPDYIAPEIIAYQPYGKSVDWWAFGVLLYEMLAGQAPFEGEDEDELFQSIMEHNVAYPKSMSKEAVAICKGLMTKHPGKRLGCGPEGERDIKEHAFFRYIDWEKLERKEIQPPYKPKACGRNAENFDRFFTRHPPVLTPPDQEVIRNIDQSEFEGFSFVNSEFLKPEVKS

Cc1ccc(Nc2nccc(N(C)c3ccc4[nH]ccc4c3)n2)cc1S(N)(=O)=O [MKP101]
inhibition at 1 µM [1]: 100 ± 2%
inhibition at 1 µM [2]: 5 ± 4%
inhibition at 1 µM ([3]; 1 μM, mean ± S.D., read-out: % inhibition at 1 μM, EGFR(h)): 96 ± 2%
IC50 ([3]; in vitro kinase assay, mean values): 43 nM
Cytotoxicity in HUVECs ([4]; 1 μg/mL): No cytotoxicity was observed
Cytotoxicity in HUVECs ([4]; 5 and 10 μg/mL): significant endothelial cytotoxicity
inhibition at 1 µM [5]: 6 ± 2%
inhibition at 1 µM [6]: 41 ± 3%
inhibition at 1 µM [7]: 16 ± 5%
Inhibition of EGFR phosphorylation [8]: reduced the levels of phosphorylated EGFR
inhibition at 1 µM [9]: 0%
inhibition at 1 µM [10]: 8 ± 3%
inhibition at 1 µM ([11]; 1 μM, mean ± S.D., read-out: % inhibition at 1 μM, VEGFR-3 (h)): 98%
IC50 ([11]; in vitro kinase assay): 2 nM
inhibition at 1 µM ([12]; 1 μM, mean ± S.D., read-out: % inhibition at 1 μM, FGFR3 (h)): 96%
IC50 ([12]; in vitro kinase assay): 43 nM
inhibition at 1 µM ([13]; 1 μM, mean ± S.D., read-out: % inhibition at 1 μM, cKit(h)): 99%
IC50 ([13]; in vitro kinase assay): 108 nM
inhibition at 1 µM [14]: 8 ± 1%
inhibition at 1 µM [15]: 7 ± 6%
inhibition at 1 µM ([16]; 1 μM, mean ± S.D., read-out: % inhibition at 1 μM, VEGFR-2 (h)): 94 ± 2%
IC50 ([16]; in vitro kinase assay): 32 nM
inhibition at 1 µM [17]: 91 ± 1%
inhibition at 1 µM [18]: 12 ± 8%
Effect on VEGF-induced increase in migration [19]: significantly inhibited
inhibition at 1 µM [20]: 7 ± 5%
